Measurements: patent EP0732934B1, “LONG-ACTING INJECTION SUSPENSIONS OF AN LHRH ANALOGUE AND A PROCESS FOR THEIR PREPARATION” (Zentaris GmbH, priority 1993, dated 2005)
Counter-ions that a name gives are not always drawn.

Experiments:
[1] = in vivo, po; cited from earlier work
[2] = compared to its embonic acid salt, subcutaneous injection in mice; cited from earlier work
[3] = test system: testosterone plasma levels; experiment: Duration of action in the animal: testosterone suppression after subcutaneous application; assay type: in vivo; settings: male rats
Description: Suspensions of the precipitates were applied subcutaneously to male rats in the dose 0.5 mg cetrorelix/kg body weight and determined after application as a measure of the effect of the peptide on testosterone plasma levels. The effect of the cetrorelix consists in reduction of the testosterone level. As a reference an injection suspension was tested as well, that prepared according to DE 4023134 A1 and which contained the peptide embonate in poly(lactic acid, glycolic acid) copolymers. The duration of action of a non-sustained release dosage form of cetrorelix was determined via examination of the aqueous solution of cetrorelix acetate.

CN(C)CCCN1c2ccccc2CCc2ccccc21 [imipramine HCl]
difference to imipramine embonate [1]: no difference

CCc1nc(N)nc(N)c1-c1ccc(Cl)cc1 [pyrimethamine]
pharmacokinetic behaviour, plasma level course and AUC [2]: no difference

Ac-DNal-DpCl-Phe-DPal-Ser-Tyr-DCit-Leu-Arg-Pro-D-Ala-NH2 [cetrorelix acetate]
effect of testosterone suppression achieved after the application ([3]; 0.5 mg cetrorelix/kg body weight subcutaneously): 6 h | duration of testosterone suppression under 1 ng/ml ([3]; 0.5 mg cetrorelix/kg subcutaneously, values for subgroups of animals (acetate: two animals, three further animals; embonate: one animal)): 24 h and up to 48 h
